Here are results for 21 compounds from patent US20240059689A1, “PURINE DERIVATIVES AS ANTICANCER AGENTS” (Tango Therapeutics, Inc., priority 2021, published 2024).

Each structure is given as a SMILES string.

One experiment deals with USP1-UAF1 (Homo sapiens, UniProt O94782). Kind of experiment: Ubiquitin Rhodamine assay of USP1-UAF1 activity. The format is biochemical. As for the experimental part:
Certain compounds of the disclosure were assessed for USP1-UAF1 activity in a Ubiquitin Rhodamine assay as described in Biology Example 1.

The subject of a further experiment is MDA-MB-436. Kind of experiment: Viability assay, BRCA1 mutant cell line MDA-MB-436. The format is cell-based. The note with it: Homo sapiens, MDA-MB-436, viability, BRCA1 mutant MDA-MB-436; read-out: MDA-MB-436 rel IC50. The text has this:
(§1) Table 1 also indicates IC50 values in a viability assay for a non-isogenic pair of BRCA1 mutant (column 5-MDA-MB-436) and BRCA1 WT (column 6—HCC1954) cell lines. These values indicate the effect of treatment with compound on cell survival.

A further experiment has as its system HCC1954. Nature of the experiment: Viability assay, BRCA1 WT cell line HCC1954. It counts as cell-based. To be noted: Homo sapiens, HCC1954, viability, read-out: HCC1954 rel IC50.
Text: as §1

The test system of another experiment is monoubiquitinated PCNA. Nature of the experiment: AlphaLISA assay measuring monoubiquitinated PCNA in MDA-MB-436. It counts as cell-based. To be noted: Homo sapiens, MDA-MB-436, monoubiquitinated PCNA, read-out: Alpha Lisa IC50. From the text: Table 1 also indicates IC50 values for exemplary compounds in an AlphaLISA assay measuring monoubiquitinated PCNA in a BRCA1 mutant cell line (MDA-MB-436; column 7).
Background: In Alpha technology, singlet oxygen from a donor bead excites a nearby acceptor bead.

Chain of USP1-UAF1 (O94782 whole entry): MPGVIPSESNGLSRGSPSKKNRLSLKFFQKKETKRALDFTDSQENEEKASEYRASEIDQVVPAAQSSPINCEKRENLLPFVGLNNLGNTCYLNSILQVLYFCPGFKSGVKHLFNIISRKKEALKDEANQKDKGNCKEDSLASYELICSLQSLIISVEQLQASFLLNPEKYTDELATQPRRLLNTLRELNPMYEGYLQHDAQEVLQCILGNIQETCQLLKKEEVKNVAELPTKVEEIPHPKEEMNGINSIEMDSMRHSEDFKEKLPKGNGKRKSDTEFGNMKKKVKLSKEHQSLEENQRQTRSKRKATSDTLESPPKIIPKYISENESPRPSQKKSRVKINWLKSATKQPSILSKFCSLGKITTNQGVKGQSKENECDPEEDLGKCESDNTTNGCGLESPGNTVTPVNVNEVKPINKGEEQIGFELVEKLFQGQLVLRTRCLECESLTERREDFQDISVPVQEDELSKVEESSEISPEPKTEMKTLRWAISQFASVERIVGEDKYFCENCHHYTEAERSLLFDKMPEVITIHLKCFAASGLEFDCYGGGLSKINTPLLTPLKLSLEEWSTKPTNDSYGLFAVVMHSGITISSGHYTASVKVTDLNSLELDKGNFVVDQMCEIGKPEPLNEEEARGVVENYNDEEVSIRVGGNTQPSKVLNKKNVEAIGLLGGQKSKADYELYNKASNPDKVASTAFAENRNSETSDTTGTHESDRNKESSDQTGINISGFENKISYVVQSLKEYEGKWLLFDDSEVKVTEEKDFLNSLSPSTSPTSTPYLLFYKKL
Chain of USP1-UAF1 (Q8TAF3 whole entry partner): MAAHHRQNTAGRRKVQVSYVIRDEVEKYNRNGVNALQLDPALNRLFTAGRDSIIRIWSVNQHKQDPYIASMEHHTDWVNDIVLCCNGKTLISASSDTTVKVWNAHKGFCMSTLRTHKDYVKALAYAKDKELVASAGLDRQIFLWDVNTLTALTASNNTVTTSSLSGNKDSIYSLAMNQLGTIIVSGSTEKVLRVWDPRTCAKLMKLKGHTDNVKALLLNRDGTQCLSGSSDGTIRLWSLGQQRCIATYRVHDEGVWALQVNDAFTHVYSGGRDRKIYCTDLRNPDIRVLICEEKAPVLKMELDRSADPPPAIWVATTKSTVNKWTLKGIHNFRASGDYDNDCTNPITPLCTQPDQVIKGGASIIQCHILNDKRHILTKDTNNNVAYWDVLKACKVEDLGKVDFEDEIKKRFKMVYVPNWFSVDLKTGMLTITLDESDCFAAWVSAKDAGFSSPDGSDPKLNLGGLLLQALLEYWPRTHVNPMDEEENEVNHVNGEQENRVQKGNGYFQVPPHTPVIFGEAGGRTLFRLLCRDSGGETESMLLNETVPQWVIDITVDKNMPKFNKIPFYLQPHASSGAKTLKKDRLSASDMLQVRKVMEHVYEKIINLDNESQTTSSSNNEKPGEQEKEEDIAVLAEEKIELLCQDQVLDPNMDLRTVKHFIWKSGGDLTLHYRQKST

For the compound `Cn1cc(C(F)(F)F)nc1-c1ccc(Cn2c(=N)n(C)c3cnc(-c4cc(F)ccc4OC(F)F)nc32)cc1` [Example T-039, 2-[2-(difluoromethoxy)-5-fluoro-phenyl]-7-methyl-9-[[4-[1-methyl-4-(trifluoromethyl)imidazol-2-yl]phenyl]methyl]purin-8-imine], the IC50 at USP1-UAF1 was 30 to 100 nM; in the experiment with MDA-MB-436 it was 250 to 10000 nM; in the experiment with HCC1954, at least 10000 nM; with monoubiquitinated PCNA it was 250 to 10000 nM.

Regarding `COc1ncnc(C2CC2)c1-c1ncc2c(n1)n([C@H](C)c1ccc(-c3nc(C(F)(F)F)cn3C)cc1)c(=N)n2CC(F)(F)F` [Example T-143, (R)-2-(4-cyclopropyl-6-methoxypyrimidin-5-yl)-9-(1-(4-(1-methyl-4-(trifluoromethyl)-1H-imidazol-2-yl)phenyl)ethyl)-7-(2,2,2-trifluoroethyl)-7,9-dihydro-8H-purin-8-imine], the IC50 against USP1-UAF1 is 30 to 100 nM; in the experiment with MDA-MB-436 it was under 100 nM; in the experiment with HCC1954 it was at least 10000 nM; in the experiment on monoubiquitinated PCNA, under 100 nM.

Turning to `CC(C)c1ccccc1-c1nc(C#N)c2c(n1)n(Cc1ccc(-c3nc(C(F)(F)F)cn3C)cc1)c(=N)n2C` [Example A-13, 8-imino-2-(2-isopropylphenyl)-7-methyl-9-(4-(1-methyl-4-(trifluoromethyl)-1H-imidazol-2-yl)benzyl)-8,9-dihydro-7H-purine-6-carbonitrile], the IC50 lay within 100 to 10000 nM against USP1-UAF1, 250 to 10000 nM in the experiment on MDA-MB-436, 250 to 10000 nM in the experiment with HCC1954 and 250 to 10000 nM in the experiment on monoubiquitinated PCNA.

With `CCOc1cc(C(F)(F)F)nn1-c1ccc(Cn2c(=N)n(CC(F)(F)F)c3cnc(-c4c(OC)ncnc4C4CC4)nc32)cc1` [Example T-114], the IC50 on USP1-UAF1 is 30 to 100 nM; in the experiment on MDA-MB-436, under 100 nM; in the experiment with HCC1954, at least 10000 nM; with monoubiquitinated PCNA, under 100 nM.

As for `COc1cc(Cn2c(=N)n(C)c3cnc(-c4ccccc4C(C)C)nc32)ccc1-c1nc(C(F)(F)F)cn1C` [Example A-37, 2-(2-isopropylphenyl)-9-(3-methoxy-4-(1-methyl-4-(trifluoromethyl)-1H-imidazol-2-yl)benzyl)-7-methyl-7,9-dihydro-8H-purin-8-imine], the IC50 against USP1-UAF1 was under 30 nM; in the experiment with MDA-MB-436, 250 to 10000 nM; in the experiment on HCC1954 it was at least 10000 nM; with monoubiquitinated PCNA, 100 to 250 nM.

Consider `Cn1cc(C(F)(F)F)nc1-c1ccc(Cn2c(=N)n(CC(F)(F)F)c3cnc(-c4c(OC(F)(F)F)ccnc4C4CC4)nc32)cc1` [Example T-112, 2-[2-cyclopropyl-4-(trifluoromethoxy)-3-pyridyl]-9-[[4-[1-methyl-4-(trifluoromethyl)imidazol-2-yl]phenyl]methyl]-7-(2,2,2-trifluoroethyl)purin-8-imine], for which the IC50 against USP1-UAF1 is 30 to 100 nM; with MDA-MB-436, under 100 nM; with HCC1954, at least 10000 nM; in the experiment on monoubiquitinated PCNA, 100 to 250 nM.

Regarding `CC(C)c1ccccc1-c1ncc2c(n1)n(CC1CCN(c3nc(Cl)cn3C)CC1)c(=N)n2C` [Example A-3, 9-((1-(4-chloro-1-methyl-1H-imidazol-2-yl)piperidin-4-yl)methyl)-2-(2-isopropylphenyl)-7-methyl-7H-purin-8(9H)-imine], the IC50 at USP1-UAF1 was 100 to 10000 nM; in the experiment with MDA-MB-436, 250 to 10000 nM; with HCC1954, at least 10000 nM; in the experiment on monoubiquitinated PCNA, 250 to 10000 nM.

`Cc1nc(-c2ccccc2C(C)C)nc2c1n(C)c(=N)n2Cc1ccc(-c2nc(C(F)(F)F)cn2C)cc1` [Example A-8, 2-(2-isopropylphenyl)-6,7-dimethyl-9-(4-(1-methyl-4-(trifluoromethyl)-1H-imidazol-2-yl)benzyl)-7,9-dihydro-8H-purin-8-imine]: the IC50 against USP1-UAF1 was under 30 nM; in the experiment with MDA-MB-436, under 100 nM; with HCC1954, 250 to 10000 nM; with monoubiquitinated PCNA it was under 100 nM.

Consider `CC(C)c1ccccc1-c1ncc2c(n1)n(Cc1ccc(-c3nc(C(F)(F)F)cn3C)cc1Cl)c(=N)n2C` [Example T-047], for which the IC50 against USP1-UAF1 is 30 to 100 nM; with MDA-MB-436, 250 to 10000 nM; in the experiment on HCC1954 it was at least 10000 nM; in the experiment on monoubiquitinated PCNA it was 100 to 250 nM.

Consider `COc1ncc(F)cc1-c1ncc2c(n1)n(Cc1ccc(-c3nc(C(F)(F)F)cn3C)cc1)c(=N)n2C` [Example T-013], for which the IC50 on USP1-UAF1 is 100 to 10000 nM; in the experiment on MDA-MB-436, 250 to 10000 nM; in the experiment on HCC1954, at least 10000 nM; with monoubiquitinated PCNA, 250 to 10000 nM.

Turning to `Cc1ccnc(OC(F)F)c1-c1ncc2c(n1)n(Cc1ccc(-c3nc(C(F)(F)F)cn3C)cc1)c(=N)n2CC(F)(F)F` [Example T-115, 2-(2-(difluoromethoxy)-4-methylpyridin-3-yl)-9-(4-(1-methyl-4-(trifluoromethyl)-1H-imidazol-2-yl)benzyl)-7-(2,2,2-trifluoroethyl)-7H-purin-8(9H)-imine], the IC50 against USP1-UAF1 lay within 30 to 100 nM; in the experiment with MDA-MB-436, 100 to 250 nM; in the experiment on HCC1954, 250 to 10000 nM; with monoubiquitinated PCNA, 100 to 250 nM.

`COc1ncnc(C2CC2)c1-c1ncc2c(n1)n(Cc1ccc(-n3nc(C(F)(F)F)cc3OC)cc1)c(=N)n2CC(F)(F)F` [Example T-117, 2-(4-cyclopropyl-6-methoxy-pyrimidin-5-yl)-9-[[4-[5-methoxy-3-(trifluoromethyl)pyrazol-1-yl]phenyl]methyl]-7-(2,2,2-trifluoroethyl)purin-8-imine]: the IC50 on USP1-UAF1 was 30 to 100 nM; with MDA-MB-436, under 100 nM; in the experiment on HCC1954, at least 10000 nM; with monoubiquitinated PCNA, under 100 nM.

Turning to `COc1cc(C(F)(F)F)nn1-c1ccc(Cn2c(=N)n(CC(F)(F)F)c3cnc(-c4c(C)cnn4C(C)C)nc32)cc1` [Example T-124, 2-(2-isopropyl-4-methyl-pyrazol-3-yl)-9-[[4-[5-methoxy-3-(trifluoromethyl)pyrazol-1-yl]phenyl]methyl]-7-(2,2,2-trifluoroethyl)purin-8-imine], the IC50 against USP1-UAF1 was under 30 nM; in the experiment on MDA-MB-436, under 100 nM; in the experiment with HCC1954, at least 10000 nM; with monoubiquitinated PCNA, under 100 nM.

Turning to `COc1ncnc(C2CC2)c1-c1ncc2c(n1)n(Cc1ccc(-n3nc(C(F)(F)F)cc3C)cc1)c(=N)n2CC(F)(F)F` [Example T-098, 2-(4-cyclopropyl-6-methoxy-pyrimidin-5-yl)-9-[[4-[5-methyl-3-(trifluoromethyl)pyrazol-1-yl]phenyl]methyl]-7-(2,2,2-trifluoroethyl)purin-8-imine], the IC50 was 30 to 100 nM at USP1-UAF1, under 100 nM with MDA-MB-436, at least 10000 nM in the experiment with HCC1954 and 100 to 250 nM in the experiment on monoubiquitinated PCNA.

For `COc1ncnc(C2CC2(F)F)c1-c1ncc2c(n1)n(Cc1ccc(-c3nc(C(F)(F)F)cn3C)cc1)c(=N)n2C` (stereo not drawn) [Example T-111, 2-(4-(2,2-difluorocyclopropyl)-6-methoxypyrimidin-5-yl)-7-methyl-9-(4-(1-methyl-4-(trifluoromethyl)-1H-imidazol-2-yl)benzyl)-7H-purin-8(9H)-imine], the IC50 is 30 to 100 nM against USP1-UAF1, under 100 nM with MDA-MB-436, at least 10000 nM in the experiment with HCC1954 and under 100 nM in the experiment with monoubiquitinated PCNA.

On to `C=C(C)c1ccccc1-c1nc(C)c2c(n1)n(Cc1ccc(-c3nc(C(F)(F)F)cn3C)cc1)c(=N)n2C` [Example A-16, 6,7-dimethyl-9-(4-(1-methyl-4-(trifluoromethyl)-1H-imidazol-2-yl)benzyl)-2-(2-(prop-1-en-2-yl)phenyl)-7,9-dihydro-8H-purin-8-imine], for which the IC50 at USP1-UAF1 was under 30 nM; in the experiment with MDA-MB-436 it was under 100 nM; with HCC1954, 250 to 10000 nM; in the experiment with monoubiquitinated PCNA, under 100 nM.

As to `C=C(C)c1ccccc1-c1ncc2c(n1)n(Cc1ccc(-c3nc(Cl)cn3C)cc1)c(=N)n2C` [Example A-12, 9-(4-(4-chloro-1-methyl-1H-imidazol-2-yl)benzyl)-7-methyl-2-(2-(prop-1-en-2-yl)phenyl)-7,9-dihydro-8H-purin-8-imine], the half-maximal inhibitory concentration (IC50) was under 30 nM on USP1-UAF1, under 100 nM with MDA-MB-436, at least 10000 nM in the experiment on HCC1954 and under 100 nM with monoubiquitinated PCNA.

For the compound `Cn1cc(C(F)(F)F)nc1-c1ccc(Cn2c(=N)n(C)c3cnc(-c4cccnc4OCC(C)(C)C)nc32)cc1` [Example T-064], the IC50 was 100 to 10000 nM at USP1-UAF1, 250 to 10000 nM in the experiment with MDA-MB-436, at least 10000 nM in the experiment on HCC1954 and 250 to 10000 nM in the experiment with monoubiquitinated PCNA.

`COc1ncnc(C2CC2)c1-c1ncc2c(n1)n(Cc1ccc(-c3nc(C(F)(F)F)oc3C)cc1)c(=N)n2CC(F)(F)F` [Example T-104, 2-(4-cyclopropyl-6-methoxy-pyrimidin-5-yl)-9-[[4-[5-methyl-2-(trifluoromethyl)oxazol-4-yl]phenyl]methyl]-7-(2,2,2-trifluoroethyl)purin-8-imine]: the IC50 at USP1-UAF1 is 100 to 10000 nM; in the experiment with MDA-MB-436 it was 100 to 250 nM; in the experiment on HCC1954, at least 10000 nM; in the experiment on monoubiquitinated PCNA it was 250 to 10000 nM.

In the case of `Cn1cc(C(F)(F)F)nc1-c1ccc(Cn2c(=N)n(C)c3cnc(-c4c(Cl)cnn4C)nc32)cc1` [Example T-067], the concentration for half-maximal inhibition (IC50) on USP1-UAF1 was 30 to 100 nM; in the experiment with MDA-MB-436, 250 to 10000 nM; in the experiment with HCC1954, at least 10000 nM; in the experiment on monoubiquitinated PCNA, 250 to 10000 nM.

Turning to `CC(C)c1ccc(F)cc1-c1ncc2c(n1)n(Cc1ccc(-c3nc(C(F)(F)F)cn3C)cc1)c(=N)n2C` [Example B-11, 2-(5-fluoro-2-isopropylphenyl)-7-methyl-9-(4-(1-methyl-4-(trifluoromethyl)-1H-imidazol-2-yl)benzyl)-7,9-dihydro-8H-purin-8-imine], the concentration for half-maximal inhibition (IC50) at USP1-UAF1 was under 30 nM; in the experiment with MDA-MB-436 it was 100 to 250 nM; in the experiment on HCC1954 it was 250 to 10000 nM; in the experiment with monoubiquitinated PCNA, under 100 nM.

Broadly, the IC50 is the concentration that inhibits the measured activity by half.
